Results from PubChem BioAssay (NCI).
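The compound was tested at five concentrations on cells cultured in 96-well plates, with a 48-hour exposure period. TGI: concentration producing complete growth inhibition.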

Key:
Assay in all cases: NCI anticancer screen, dose series, 48 h
OVCAR-8 ovarian = test system: OVCAR-8 ovarian
SNB-19 CNS = test system: SNB-19 CNS
OVCAR-3 ovarian = test system: OVCAR-3 ovarian
SF-295 CNS = test system: SF-295 CNS
T-47D breast = test system: T-47D breast
SF-539 CNS = test system: SF-539 CNS
COLO 205 colon = test system: COLO 205 colon
SNB-75 CNS = test system: SNB-75 CNS
MCF7 breast = test system: MCF7 breast
ACHN renal = test system: ACHN renal
UACC-62 melanoma = test system: UACC-62 melanoma
TK-10 renal = test system: TK-10 renal
HS 578T breast = test system: HS 578T breast
SK-MEL-2 melanoma = test system: SK-MEL-2 melanoma
U251 CNS = test system: U251 CNS
NCI-H23 lung = test system: NCI-H23 lung
SR leukemia = test system: SR leukemia
K-562 leukemia = test system: K-562 leukemia
SK-OV-3 ovarian = test system: SK-OV-3 ovarian

Row | Structure (SMILES) | TGI (OVCAR-8 ovarian) | TGI (SNB-19 CNS) | TGI (OVCAR-3 ovarian) | TGI (SF-295 CNS) | TGI (T-47D breast) | TGI (SF-539 CNS) | TGI (COLO 205 colon) | TGI (SNB-75 CNS) | TGI (MCF7 breast) | TGI (ACHN renal) | TGI (UACC-62 melanoma) | TGI (TK-10 renal) | TGI (HS 578T breast) | TGI (SK-MEL-2 melanoma) | TGI (U251 CNS) | TGI (NCI-H23 lung) | TGI (SR leukemia) | TGI (K-562 leukemia) | TGI (SK-OV-3 ovarian)
1 | N#Cc1c(O)c(N=Nc2ccc(Cl)cc2)c(=O)n2c1[nH]c1ccccc12 | > 100 µM | > 100 µM | 80.8 µM | > 100 µM | > 100 µM | > 100 µM | > 100 µM | > 100 µM | > 100 µM | > 100 µM | > 100 µM | > 100 µM | > 100 µM | > 100 µM | > 100 µM | > 100 µM | > 100 µM | > 100 µM | > 100 µM
2 | CN(C)C=NCCN1CCOCC1 | > 100 µM | > 100 µM | > 100 µM | > 100 µM | > 100 µM | > 100 µM | > 100 µM | > 100 µM | > 100 µM | > 100 µM | > 100 µM | > 100 µM | > 100 µM | > 100 µM | > 100 µM | > 100 µM | > 100 µM | > 100 µM | > 100 µM
3 | COc1ccc2c(c1)CCCN2S(=O)(=O)c1ccccc1[N+](=O)[O-] | > 89.4 µM | > 100 µM | > 92.3 µM | > 100 µM | > 87.8 µM | 68.8 µM | > 79.8 µM | > 87 µM | 99.3 µM | > 100 µM | > 97.5 µM | 97.1 µM | > 97.1 µM | 72.4 µM | > 92 µM | > 100 µM | > 78.8 µM | > 68.9 µM | > 77 µM
4 | O=C(CCCl)NNC1=NCCCCN1 | > 100 µM | > 100 µM | > 100 µM | > 100 µM | > 100 µM | > 100 µM | > 100 µM | > 100 µM | > 100 µM | > 100 µM | > 100 µM | > 100 µM | > 100 µM | > 100 µM | > 100 µM | > 100 µM | > 100 µM | > 100 µM | > 100 µM
5 | CC1=CC(C)C(C)N(CCNS(=O)(=O)c2ccc(C)cc2)c2ccccc21 (centres undefined) | 24 µM | > 31.6 µM | 17.1 µM | 19.5 µM | 22.3 µM | 18.1 µM | 17.3 µM | 23.4 µM | 19.8 µM | 29.2 µM | 17.2 µM | > 82.8 µM | 20.7 µM | 18 µM | 31.7 µM | 26.9 µM | > 31.6 µM | 27.5 µM | > 100 µM
6 | CCCCCCOc1ccc(C(=O)N(C)O)cc1 | 61 µM | > 100 µM | > 100 µM | > 62.4 µM | 99.4 µM | 44.6 µM | 56 µM | > 94.4 µM | > 100 µM | 30.3 µM | 60.9 µM | > 100 µM | > 100 µM | > 100 µM | > 100 µM | 65.6 µM | 39.6 µM | > 78.8 µM | > 97.1 µM
7 | O=c1c2cc(Cl)ccc2[nH]c2cc(O)cc(O)c12 | > 10 µM | > 10 µM | > 10 µM | > 10 µM | > 10 µM | > 10 µM | > 10 µM | > 10 µM | > 10 µM | > 10 µM | > 10 µM | > 10 µM | > 10 µM | > 10 µM | > 10 µM | > 10 µM | > 10 µM | > 10 µM | > 10 µM
8 | CC(=O)c1cccc(NC(=O)C(=O)C(c2cnc3ccc([N+](=O)[O-])cc3n2)[N+](=O)[O-])c1 (centres undefined) | > 100 µM | > 100 µM | > 100 µM | > 100 µM | > 100 µM | > 100 µM | > 100 µM | > 100 µM | > 100 µM | > 100 µM | > 100 µM | > 100 µM | > 100 µM | > 100 µM | > 100 µM | > 100 µM | > 100 µM | > 100 µM | > 100 µM
9 | O=C(CC(=O)N1N=C(N(c2ccccc2)c2ccccc2)CC1c1ccccc1)Nc1ccc(Cl)cc1 (centres undefined) | > 100 µM | > 100 µM | > 100 µM | > 100 µM | > 100 µM | > 100 µM | > 100 µM | > 100 µM | > 100 µM | > 100 µM | > 100 µM | > 100 µM | > 100 µM | > 100 µM | > 100 µM | > 100 µM | > 100 µM | > 100 µM | > 100 µM
10 | CCOC(=O)/C=C/[C@H](O)[C@@H](O)/C=C/C(=O)OCC | 44.8 µM | 58.2 µM | 64.7 µM | > 100 µM | > 100 µM | > 100 µM | > 100 µM | > 100 µM | 79.7 µM | 60 µM | 57.4 µM | > 100 µM | > 100 µM | > 100 µM | > 100 µM | > 100 µM | 40 µM | 27.7 µM | > 100 µM
11 | CN(C)CC1CCCCCCCCCC(CN(C)C)C1=O (centres undefined) | > 54.8 µM | > 55.6 µM | > 40.1 µM | > 59.7 µM | 53 µM | > 47 µM | > 100 µM | > 44.9 µM | 24.3 µM | > 46.3 µM | > 44.1 µM | > 53.7 µM | 24.1 µM | > 67.4 µM | > 54.5 µM | > 50.5 µM | > 100 µM | > 38.5 µM | > 45.6 µM
